Values quoted from earlier work, collected in patent publication US20090265114A1, “Influenza virus neuraminidase crystal structure and their use thereof” (priority 2006, published 2009).

Key:
[1] = test system: Group-1 enzymes with Arg-292->Lys; conditions: Group-1 enzymes compared with Group-2 NAs
[2] = test system: Group-1 NAs with His-274->Tyr
[3] = test system: Group-2 NAs with His-274->Tyr

SMILES: CCOC(=O)C1=C[C@@H](OC(CC)CC)[C@H](NC(C)=O)[C@@H](N)C1 [oseltamivir]
- effect of the mutation Arg-292->Lys on oseltamivir resistance [1]: smaller effect
- resistance against oseltamivir caused by the mutation His-274->Tyr [2]: high resistance
- effect of the mutation His-274->Tyr on resistance against oseltamivir [3]: little effect
